pEC50: −log10 of the molar value.
These compounds were tested on genotype A, "Long" strain RSV (assay: RSV-A assay (CPE protection in Hep-2 cells, ATPlite readout)). Conditions: human respiratory syncytial virus, genotype A “Long” strain RSV, MOI 0.1, CPE protection, read-out: Human RSV-A (“Long”).
Format: cell-based, Human respiratory syncytial virus (HRSV)
Summary of the method: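 Hep-2, 8,000 cells/well, MOI 0.1 (PFU- or TCID50-based); 2-fold compound series, duplicates; 5 d incubation; ATPlite luminescence readout; EC50.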

C[C@]1(C(N)=O)COc2c1cc([C@@](O)(CNC(=O)c1nccc3[nH]ccc13)C(F)(F)F)nc2-c1ccc(F)cc1 [Example 388] and C[C@]1(C(N)=O)COc2c1cc([C@@](O)(CNC(=O)c1cccc3[nH]ccc13)C(F)(F)F)nc2-c1ccc(F)cc1 [Example 415] cannot be ordered by pEC50: less than 6.70 for the first, less than 6.70 for the second.

C[C@]1(C(N)=O)COc2c1cc([C@@](O)(CNC(=O)c1cncs1)C(F)(F)F)nc2-c1ccc(F)cc1 [Example 389] and Cc1ncc(C(=O)NC[C@](O)(c2cc3c(c(-c4ccc(F)cc4)n2)OC[C@]3(C)C(N)=O)C(F)(F)F)s1 [Example 431] cannot be ordered by pEC50: less than 6.70 for the first, less than 6.70 for the second.

Cc1cnc(C(=O)NC[C@](O)(c2cc3c(c(-c4ccc(F)cc4)n2)OC[C@]3(C)C(N)=O)C(F)(F)F)cn1 [Example 390] and Cc1cncnc1C(=O)NC[C@](O)(c1cc2c(c(-c3ccc(F)cc3)n1)OC[C@]2(C)C(N)=O)C(F)(F)F [Example 410] cannot be ordered by pEC50: less than 6.70 for the first, less than 6.70 for the second.

C[C@]1(C(N)=O)COc2c1cc([C@@](O)(CNC(=O)c1ccc[nH]1)C(F)(F)F)nc2-c1ccc(F)cc1 [Example 391] and C[C@]1(C(N)=O)COc2c1cc([C@@](O)(CNC(=O)c1ccco1)C(F)(F)F)nc2-c1ccc(F)cc1 [Example 404] cannot be ordered by pEC50: less than 6.70 for the first, less than 6.70 for the second.

C[C@]1(C(N)=O)COc2c1cc([C@@](O)(CNC(=O)c1cc3ccccn3n1)C(F)(F)F)nc2-c1ccc(F)cc1 [Example 392] and C[C@]1(C(N)=O)COc2c1cc([C@@](O)(CNC(=O)c1cn3ccccc3n1)C(F)(F)F)nc2-c1ccc(F)cc1 [Example 413] cannot be ordered by pEC50: less than 6.70 for the first, less than 6.70 for the second.

C[C@]1(C(N)=O)COc2c1cc([C@@](O)(CNC(=O)c1n[nH]c3ncccc13)C(F)(F)F)nc2-c1ccc(F)cc1 [Example 393] and C[C@]1(C(N)=O)COc2c1cc([C@@](O)(CNC(=O)c1n[nH]c3ccc(F)cc13)C(F)(F)F)nc2-c1ccc(F)cc1 [Example 397] cannot be ordered by pEC50: less than 6.70 for the first, less than 6.70 for the second.

COc1ccc2nc(C(=O)NC[C@](O)(c3cc4c(c(-c5ccc(F)cc5)n3)OC[C@]4(C)C(N)=O)C(F)(F)F)sc2c1 [Example 394] and COc1cccc(-c2n[nH]cc2C(=O)NC[C@](O)(c2cc3c(c(-c4ccc(F)cc4)n2)OC[C@]3(C)C(N)=O)C(F)(F)F)c1 [Example 448] cannot be ordered by pEC50: less than 6.70 for the first, less than 6.70 for the second.

COc1cccc2[nH]nc(C(=O)NC[C@](O)(c3cc4c(c(-c5ccc(F)cc5)n3)OC[C@]4(C)C(N)=O)C(F)(F)F)c12 [Example 395] and COc1cccc(C(=O)NC[C@](O)(c2cc3c(c(-c4ccc(F)cc4)n2)OC[C@]3(C)C(N)=O)C(F)(F)F)c1F [Example 427] cannot be ordered by pEC50: less than 6.70 for the first, less than 6.70 for the second.

C[C@]1(C(N)=O)COc2c1cc([C@@](O)(CNC(=O)c1nccs1)C(F)(F)F)nc2-c1ccc(F)cc1 [Example 396] and C[C@]1(C(N)=O)COc2c1cc([C@@](O)(CNC(=O)c1ncc[nH]1)C(F)(F)F)nc2-c1ccc(F)cc1 [Example 426] cannot be ordered by pEC50: less than 6.70 for the first, less than 6.70 for the second.

Cc1ccc2nc(C(=O)NC[C@](O)(c3cc4c(c(-c5ccc(F)cc5)n3)OC[C@]4(C)C(N)=O)C(F)(F)F)cn2c1 [Example 398] and C[C@]1(C(N)=O)COc2c1cc([C@@](O)(CNC(=O)c1ccn3nccc3n1)C(F)(F)F)nc2-c1ccc(F)cc1 [Example 433] cannot be ordered by pEC50: less than 6.70 for the first, less than 6.70 for the second.

C[C@]1(C(N)=O)COc2c1cc([C@@](O)(CNC(=O)c1ccnc3ccccc13)C(F)(F)F)nc2-c1ccc(F)cc1 [Example 399] and Cc1cc(C(=O)NC[C@](O)(c2cc3c(c(-c4ccc(F)cc4)n2)OC[C@]3(C)C(N)=O)C(F)(F)F)c2ccccc2n1 [Example 432] cannot be ordered by pEC50: less than 6.70 for the first, less than 6.70 for the second.

C[C@]1(C(N)=O)COc2c1cc([C@@](O)(CNC(=O)c1cc3cc[nH]c3cc1F)C(F)(F)F)nc2-c1ccc(F)cc1 [Example 400] and C[C@]1(C(N)=O)COc2c1cc([C@@](O)(CNC(=O)c1ccc3[nH]ccc3c1F)C(F)(F)F)nc2-c1ccc(F)cc1 [Example 438] cannot be ordered by pEC50: less than 6.70 for the first, less than 6.70 for the second.

Cn1c(C(=O)NC[C@](O)(c2cc3c(c(-c4ccc(F)cc4)n2)OC[C@]3(C)C(N)=O)C(F)(F)F)cc2ccccc21 [Example 401] and Cn1cccc1C(=O)NC[C@](O)(c1cc2c(c(-c3ccc(F)cc3)n1)OC[C@]2(C)C(N)=O)C(F)(F)F [Example 425] cannot be ordered by pEC50: less than 6.70 for the first, less than 6.70 for the second.

C[C@]1(C(N)=O)COc2c1cc([C@@](O)(CNC(=O)c1ccn3ccnc3c1)C(F)(F)F)nc2-c1ccc(F)cc1 [Example 402] and Cn1ccc(C(=O)NC[C@](O)(c2cc3c(c(-c4ccc(F)cc4)n2)OC[C@]3(C)C(N)=O)C(F)(F)F)c1 [Example 407] cannot be ordered by pEC50: less than 6.70 for the first, less than 6.70 for the second.

C[C@]1(C(N)=O)COc2c1cc([C@@](O)(CNC(=O)c1ccc3[nH]ncc3n1)C(F)(F)F)nc2-c1ccc(F)cc1 [Example 403] and C[C@]1(C(N)=O)COc2c1cc([C@@](O)(CNC(=O)c1nc3cc(F)ccc3[nH]1)C(F)(F)F)nc2-c1ccc(F)cc1 [Example 405] cannot be ordered by pEC50: less than 6.70 for the first, less than 6.70 for the second.

C[C@]1(C(N)=O)COc2c1cc([C@@](O)(CNC(=O)c1ccnnc1)C(F)(F)F)nc2-c1ccc(F)cc1 [Example 406] and Cc1ccnnc1C(=O)NC[C@](O)(c1cc2c(c(-c3ccc(F)cc3)n1)OC[C@]2(C)C(N)=O)C(F)(F)F [Example 416] cannot be ordered by pEC50: less than 6.70 for the first, less than 6.70 for the second.

Going from C[C@]1(C(N)=O)COc2c1cc([C@@](O)(CNC(=O)c1ccc(C(F)F)nc1)C(F)(F)F)nc2-c1ccc(F)cc1 [Example 408] to C[C@]1(C(N)=O)COc2c1cc([C@@](O)(CNC(=O)c1ccc3ccnn3c1)C(F)(F)F)nc2-c1ccc(F)cc1 [Example 418], the pEC50 rises from less than 6.70 to greater than 6.70. The second is the more potent here.

C[C@]1(C(N)=O)COc2c1cc([C@@](O)(CNC(=O)c1cnc3cccnn13)C(F)(F)F)nc2-c1ccc(F)cc1 [Example 409] and C[C@]1(C(N)=O)COc2c1cc([C@@](O)(CNC(=O)c1cnc3cnccn13)C(F)(F)F)nc2-c1ccc(F)cc1 [Example 436] cannot be ordered by pEC50: less than 6.70 for the first, less than 6.70 for the second.

Cn1ccc(C(=O)NC[C@](O)(c2cc3c(c(-c4ccc(F)cc4)n2)OC[C@]3(C)C(N)=O)C(F)(F)F)n1 [Example 411] and C[C@]1(C(N)=O)COc2c1cc([C@@](O)(CNC(=O)c1ccc3nccn3n1)C(F)(F)F)nc2-c1ccc(F)cc1 [Example 417] cannot be ordered by pEC50: less than 6.70 for the first, less than 6.70 for the second.

COc1ncc(F)cc1C(=O)NC[C@](O)(c1cc2c(c(-c3ccc(F)cc3)n1)OC[C@]2(C)C(N)=O)C(F)(F)F [Example 412] and COc1ncccc1C(=O)NC[C@](O)(c1cc2c(c(-c3ccc(F)cc3)n1)OC[C@]2(C)C(N)=O)C(F)(F)F [Example 428] cannot be ordered by pEC50: less than 6.70 for the first, less than 6.70 for the second.

C[C@]1(C(N)=O)COc2c1cc([C@@](O)(CNC(=O)c1cc(Cl)cc3[nH]ncc13)C(F)(F)F)nc2-c1ccc(F)cc1 [Example 414] and C[C@]1(C(N)=O)COc2c1cc([C@@](O)(CNC(=O)c1cccc3[nH]cnc13)C(F)(F)F)nc2-c1ccc(F)cc1 [Example 429] cannot be ordered by pEC50: less than 6.70 for the first, less than 6.70 for the second.

C[C@]1(C(N)=O)COc2c1cc([C@@](O)(CNC(=O)c1sc3ccccc3c1Cl)C(F)(F)F)nc2-c1ccc(F)cc1 [Example 419] and Cc1c(C(=O)NC[C@](O)(c2cc3c(c(-c4ccc(F)cc4)n2)OC[C@]3(C)C(N)=O)C(F)(F)F)sc2ccccc12 [Example 435] cannot be ordered by pEC50: less than 6.70 for the first, less than 6.70 for the second.

C[C@]1(C(N)=O)COc2c1cc([C@@](O)(CNC(=O)c1nc3ccccc3[nH]1)C(F)(F)F)nc2-c1ccc(F)cc1 [Example 420] and Cn1nc2ccccc2c1C(=O)NC[C@](O)(c1cc2c(c(-c3ccc(F)cc3)n1)OC[C@]2(C)C(N)=O)C(F)(F)F [Example 424] cannot be ordered by pEC50: less than 6.70 for the first, less than 6.70 for the second.

C[C@]1(C(N)=O)COc2c1cc([C@@](O)(CNC(=O)c1ccccn1)C(F)(F)F)nc2-c1ccc(F)cc1 [Example 421] and C[C@]1(C(N)=O)COc2c1cc([C@@](O)(CNC(=O)c1c[nH]nc1-c1ccccc1)C(F)(F)F)nc2-c1ccc(F)cc1 [Example 446] cannot be ordered by pEC50: less than 6.70 for the first, less than 6.70 for the second.

C[C@]1(C(N)=O)COc2c1cc([C@@](O)(CNC(=O)c1cc3cc(F)ccc3[nH]1)C(F)(F)F)nc2-c1ccc(F)cc1 [Example 422] and C[C@]1(C(N)=O)COc2c1cc([C@@](O)(CNC(=O)c1cc3cc(F)ccc3s1)C(F)(F)F)nc2-c1ccc(F)cc1 [Example 434] cannot be ordered by pEC50: less than 6.70 for the first, less than 6.70 for the second.

Going from COc1ccc(C(=O)NC[C@](O)(c2cc3c(c(-c4ccc(F)cc4)n2)OC[C@]3(C)C(N)=O)C(F)(F)F)cc1C [Example 423] to COc1cc2ccc(C(=O)NC[C@](O)(c3cc4c(c(-c5ccc(F)cc5)n3)OC[C@]4(C)C(N)=O)C(F)(F)F)cc2cc1OC [Example 440], the pEC50 rises from less than 6.70 to greater than 6.70.

COc1cccc2oc(C(=O)NC[C@](O)(c3cc4c(c(-c5ccc(F)cc5)n3)OC[C@]4(C)C(N)=O)C(F)(F)F)cc12 [Example 430] and Cn1cc(C(=O)NC[C@](O)(c2cc3c(c(-c4ccc(F)cc4)n2)OC[C@]3(C)C(N)=O)C(F)(F)F)c(-c2ccccc2)n1 [Example 445] cannot be ordered by pEC50: less than 6.70 for the first, less than 6.70 for the second.

CC(C)c1csc(C(=O)NC[C@](O)(c2cc3c(c(-c4ccc(F)cc4)n2)OC[C@]3(C)C(N)=O)C(F)(F)F)n1 [Example 437] and C[C@]1(C(N)=O)COc2c1cc([C@@](O)(CNC(=O)c1cnn3ccncc13)C(F)(F)F)nc2-c1ccc(F)cc1 [Example 439] cannot be ordered by pEC50: less than 6.70 for the first, less than 6.70 for the second.

Going from COC(=O)C12CC(C(=O)NC[C@](O)(c3cc4c(c(-c5ccc(F)cc5)n3)OC[C@]4(C)C(N)=O)C(F)(F)F)(C1)C2 [Example 442] to C[C@]1(C(N)=O)COc2c1cc([C@@](O)(CNC(=O)c1cnn(-c3ccccc3)c1)C(F)(F)F)nc2-c1ccc(F)cc1 [Example 444], the pEC50 rises from less than 6.70 to greater than 6.70. The second is the more potent here.

C[C@]1(C(N)=O)COc2c1cc([C@@](O)(CNC(=O)c1cn(-c3ccccc3)nc1-c1ccccc1)C(F)(F)F)nc2-c1ccc(F)cc1 [Example 443] and COc1cccc(-c2nn(-c3ccccc3)cc2C(=O)NC[C@](O)(c2cc3c(c(-c4ccc(F)cc4)n2)OC[C@]3(C)C(N)=O)C(F)(F)F)c1 [Example 447] cannot be ordered by pEC50: less than 6.70 for the first, less than 6.70 for the second.
